# “Also recorded” adds a separate entry of the source.
# How the values were obtained:
# endothelin receptors [1] = experiment: Competition binding studies with [125I]ET-1 on mouse ventricular membrane preparations; conditions: read-out: dissociation constant KD; Scatchard transformation of saturation data, mouse ventricular membranes
# Protocol: Microsomes were prepared by homogenizing ventricles from DBA mice at 4° C. for 90 seconds in 1 ml of buffer A (10 mM EDTA, 10 mM HEPES, 0.1 mM benzamidine, pH 7.4), using a Polytron PT 3000 (Kinematica, Luceme, Switzerland). Homogenates were centrifuged at 45,000× gmax for 15 min at 4° C. The pellets were resuspended in 1 ml of buffer B (1 mM EDTA, 10 mM HEPES, 0.1 mM benzamidine, pH 7.4) and recentrifuged at 45,000× gmax for 15 min at 4° C. The pellets were resuspended in 1 ml of buffer B and centrifuged at 10,000× gmax for 10 min at 4° C. The supernatants were recentrifuged at 45,000×gmax for 15 min at 4° C. […]
# For competition binding studies, the prepared membranes were resuspended in buffer D (10 mM Tris.HCl, 154 mM NaCl, 0.1 mM ascorbic acid, pH 7.4) at 0° C. […] The membrane bound radioactivity was determined in a γ-scintillation counter. Competition binding curves were analyzed by nonlinear regression analysis using the XMGRACE programme (Linux software).
# Different concentrations of the prepared compound (1.0 pM-100 μM) were incubated with 40 pM [^125I]ET-1 and a fixed amount of mouse ventricular membrane preparation (10 μg) at 37° C. for 4 h. The membrane bound radioactivity was evaluated using a γ-scintillation counter and standardized on percentage of [^125I]ET-1. […]
# [2] = system: ETA-negative MDA-MB-435 human breast carcinoma cells; experiment: In vitro cell binding assay by fluorescence microscopy, MDA-MB-435 cells; type: cell-based; conditions: 45 min at 4° C.
# Source text: In vitro cell binding assays.
# [3] = target: T1, ETA receptor on HT-1080 human fibrosarcoma cells (Homo sapiens, UniProt P25101); experiment: In vitro cell binding assay by fluorescence microscopy, HT-1080 cells; type: cell-based; conditions: for cellular fluorescence signal (fluorescence microscopy): HT-1080 cells, 45 min at 4° C.
# T1 construct: The highest amount of protein is found in human fibrosarcoma cells HT-1080; host or cells: HT-1080
# T1 sequence (P25101 21-427): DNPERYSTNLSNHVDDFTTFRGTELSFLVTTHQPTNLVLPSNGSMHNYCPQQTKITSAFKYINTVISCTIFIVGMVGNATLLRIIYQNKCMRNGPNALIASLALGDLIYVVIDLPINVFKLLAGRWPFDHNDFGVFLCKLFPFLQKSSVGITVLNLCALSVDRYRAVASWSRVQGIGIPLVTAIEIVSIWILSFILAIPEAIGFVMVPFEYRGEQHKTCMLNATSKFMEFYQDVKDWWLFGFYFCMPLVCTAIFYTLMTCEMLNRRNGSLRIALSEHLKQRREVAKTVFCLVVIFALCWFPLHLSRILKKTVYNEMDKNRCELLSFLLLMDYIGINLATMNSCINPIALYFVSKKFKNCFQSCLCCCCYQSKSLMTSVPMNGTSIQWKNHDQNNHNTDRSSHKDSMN
# Protocol: Cell lines and reagents. Human breast adenocarcinoma cell line MCF-7 (ATCC-No. HTB-22), MDA-MB-435 human breast carcinoma cells (ATCC-No. HTB-123) and HT-1080 human fibrosarcoma cells (ATCC-No. CCL-121) were cultured in RPMI 1640 (Invitrogen Corporation, San Diego, USA) supplemented with 10% fetal calf serum, penicillin and streptomycin. Cells were grown routinely in a monolayer culture at 37° C. in a 5% CO2 humidified air atmosphere.
# (§1) Cell binding assays. Cells (HT-1080 fibrosarcomas, MDA-MB435 ductal carcinomas, MCF-7 adenocarcinomas) were seeded in 4-well plates (Nunc GmbH & Co. KG, Wiesbaden, Germany) and incubated in culture medium (0.5 ml/well) overnight. For binding studies cells were washed twice with PBS and resuspended in 150 μl binding buffer (20 mM HEPES in PBS with Ca^2+/Mg^2+, 0.2% BSA, 0.1% Glucose, pH 7.4). […] After an incubation period of 45 min at 4° C. cells were washed twice with PBS and were resuspended in binding buffer. […] Cells could be directly visualised by fluorescence microscopy (40× objective, Nikon TE 2000-S, Nikon-Düsseldorf, Germany). The microscope was equipped with a mercury vapour lamp (100 W), 620/775 nm and 545/675 nm (excitation/emission) filters (AHF Analysentechnik, Tbingen, Germany), a Nikon DXM1200F camera and ACT1/DXM1200F software (Nikon, Japan).
# (§2) In vitro cell binding assays. […] Binding of the labelled antagonist could be directly analysed by fluorescence microscopy.
# [4] = system: ETA receptor on MCF-7 human breast adenocarcinoma cells; experiment: In vitro cell binding assay by fluorescence microscopy, MCF-7 cells; conditions: for cellular fluorescence signal (fluorescence microscopy): 45 min at 4° C., nmol amounts per well
# Protocol: Human breast cancer cell line MCF-7 (ATCC-No. HTB-22) was cultured in RPMI 1640 (Invitrogen Corporation, San Diego, USA) supplemented with 10% fetal calf serum, penicillin and streptomycin. Cells were grown routinely in a monolayer culture at 37° C. in a 5% CO2 humidified air atmosphere. Antibodies were murine IgGs and specific for the endothelin A receptor.
# Cells were seeded in 4-well plates (Nunc, Wiesbaden) and incubated in culture medium (0.5 ml/well) overnight. For binding studies cells were washed twice with PBS and resuspended in 150 μl binding-buffer (20 mM HEPES in PBS with Ca^2+/Mg^2+, 0.2% BSA, 0.1% Glucose, pH 7.4). […] After an incubation period of 45 min at 4° C. cells were washed twice with PBS and were resuspended in binding buffer. For competition binding studies free ETAR antagonist (final amount 50 nmol) or ETAR antibodies (1.3 μg) were added to each well for 45 min at 4° C. Cells could be directly visualized by fluorescence microscopy (40× and 60× objective, Nikon TE 2000-S, Nikon-Düsseldorf). The microscope was equipped with a mercury vapour lamp (100 W), 620/775 nm and 545/675 nm (excitation/emission) filters (AHF Analysentechnik, Tübingen), a Nikon DXM1200F camera and ACT1/DXM1200F software (Nikon, Japan).
# Binding of the labelled antagonist could be directly analyzed by fluorescence microscopy.
# as §1, §2
# [5] = system: ETAR in MCF-7 tumor xenografts; experiment: In vivo FMT/FRI imaging of MCF-7 tumor xenografts; design: species or system mice
# [6] = target: T2, ETAR in MDA-MB-435 tumor xenografts (Mus musculus, UniProt Q61614); experiment: In vivo FMT/FRI imaging of MDA-MB-435 murine xenograft models; design: species or system mice
# T2 construct: from tissue; host or cells: MDA-MB-435 tumour xenografts in mice (host-derived cells, e.g. endothelial)
# T2 sequence (Q61614 21-427): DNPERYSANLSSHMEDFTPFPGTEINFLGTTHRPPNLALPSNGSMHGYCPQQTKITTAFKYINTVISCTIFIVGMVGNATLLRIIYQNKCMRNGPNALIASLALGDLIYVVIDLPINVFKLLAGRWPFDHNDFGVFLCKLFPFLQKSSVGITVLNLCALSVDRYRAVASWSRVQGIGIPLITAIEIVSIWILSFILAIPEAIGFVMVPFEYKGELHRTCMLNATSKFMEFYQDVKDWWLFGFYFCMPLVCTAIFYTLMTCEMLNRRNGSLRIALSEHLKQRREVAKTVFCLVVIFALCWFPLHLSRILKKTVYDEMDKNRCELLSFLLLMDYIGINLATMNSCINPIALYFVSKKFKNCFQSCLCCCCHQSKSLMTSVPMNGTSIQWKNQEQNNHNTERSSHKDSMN
# Source text: FIG. 7: 3D-FMTexamination of MDA-MB-435 murine xenograft models.
# myocardial ETAR = target: T3, myocardial ETAR (Mus musculus, UniProt Q61614); experiment: In vivo FRI imaging of myocardial ETAR expression; conditions: mice, pre-dosing with PD 156707
# T3 construct: from tissue; host or cells: mouse myocardium, in vivo
# T3 sequence (Q61614 21-427): T2 sequence (Q61614 21-427)
# Protocol: FIG. 6: In vivo application of the targeted fluorophore for imaging of myocardial ETAR—expression. Mice were injected with the targeted fluorophore with (middle) and without (right) pre-dosing with PD 156707. The left speciment is a saline injected control.
# endothelin receptors [7] = conditions: literature value printed for comparison (lit.; ref. 37); cited from earlier work
# [8] = MDA-MB-435, block (100 nmol PD 156707 10 minutes before), 1 h
# [9] = MDA-MB-435, block (100 nmol PD 156707 10 minutes before), 3 h
# [10] = MDA-MB-435, block (100 nmol PD 156707 10 minutes before), 5 h
# [11] = MDA-MB-435, block (100 nmol PD 156707 10 minutes before), 24 h
# [12] = MDA-MB-435, nativ, 24 h, 2 nmol
molecule,measurement,setting,value
[^125I]ET-1: radioiodinated endothelin-1 radioligand (PerkinElmer),Kd,endothelin receptors [1],0.208 ± 0.002 nM
Cy 5.5 [reference compound],cellular fluorescence signal (fluorescence microscopy),[2],Negligible signals
same,cellular fluorescence signal (fluorescence microscopy),[3],Negligible signals
same,cellular fluorescence signal (fluorescence microscopy),[4],Negligible signals
CC[N+]1=C(/C=C/C=C/C=C2/N(CCCCCC(=O)NCCOCCOCCOCCOc3cc(CC4=C(c5ccc6c(c5)OCO6)C(=O)OC4(O)c4ccc(OC)cc4)cc(OC)c3OC)c3ccc4c(S(=O)(=O)O)cc(S(=O)(=O)O)cc4c3C2(C)C)C(C)(C)c2c1ccc1c(S(=O)(=O)O)cc(S(=O)(=O)O)cc21 (stereo not drawn) [ETAR-Cy 5.5],cellular fluorescence signal (fluorescence microscopy),[2],little to no cellular fluorescence
same,cellular fluorescence signal (fluorescence microscopy),[2]; listed as 17,no accumulation of the ligand; also recorded: do not bind the tracer
same,mean (FMT-data),"[5]; MCF-7, block, 1 h",196.50
same,pmol (FMT-data),"[5]; MCF-7, block, 1 h",224.00 pmol
same,mean (FMT-data),"[5]; MCF-7, block, 3 h",66.50
same,pmol (FMT-data),"[5]; MCF-7, block, 3 h",274.50 pmol
same,mean (FMT-data),"[5]; MCF-7, block, 5 h",100.67
same,pmol (FMT-data),"[5]; MCF-7, block, 5 h",201.67 pmol
same,mean (FMT-data),"[5]; MCF-7, block, 24 h",125.50
same,pmol (FMT-data),"[5]; MCF-7, block, 24 h",9.00 pmol
same,mean (FMT-data),"[5]; MCF-7, nativ, 1 h",148.00
same,pmol (FMT-data),"[5]; MCF-7, nativ, 1 h",599.00 pmol
same,mean (FMT-data),"[5]; MCF-7, nativ, 3 h",79.00
same,pmol (FMT-data),"[5]; MCF-7, nativ, 3 h",339.00 pmol
same,mean (FMT-data),"[5]; MCF-7, nativ, 5 h",115.50
same,pmol (FMT-data),"[5]; MCF-7, nativ, 5 h",473.00 pmol
same,mean (FMT-data),"[5]; MCF-7, nativ, 24 h",207.67
same,pmol (FMT-data),"[5]; MCF-7, nativ, 24 h",33.00 pmol
same,fluorescence signal of tumor xenografts by FRI and FMT,"[5]; MCF-7 xenografts, 2 nmol i.v.",high fluorescence signal yields
same,fluorescence signal of tumor xenografts by FRI and FMT,"[6]; MDA-MB 435 xenografts, 2 nmol i.v.",high fluorescence signal yields
same,mean (FMT-data),[6]; [8],253.57
same,pmol (FMT-data),[6]; [8],22.14 pmol
same,mean (FMT-data),[6]; [9],323.25
same,pmol (FMT-data),[6]; [9],17.25 pmol
same,mean (FMT-data),[6]; [10],343.78
same,pmol (FMT-data),[6]; [10],19.67 pmol
same,mean (FMT-data),[6]; [11],273.80
same,pmol (FMT-data),[6]; [11],34.80 pmol
same,mean (FMT-data),"[6]; MDA-MB-435, nativ, 1 h, 2 nmol",356.89
same,pmol (FMT-data),"[6]; MDA-MB-435, nativ, 1 h, 2 nmol",40.56 pmol
same,mean (FMT-data),"[6]; MDA-MB-435, nativ, 3 h, 2 nmol",326.33
same,pmol (FMT-data),"[6]; MDA-MB-435, nativ, 3 h, 2 nmol",27.67 pmol
same,mean (FMT-data),"[6]; MDA-MB-435, nativ, 5 h, 2 nmol",418.17
same,pmol (FMT-data),"[6]; MDA-MB-435, nativ, 5 h, 2 nmol",55.50 pmol
same,mean (FMT-data),[6]; [12],444.38
same,pmol (FMT-data),[6]; [12],63.57 pmol
same,cellular fluorescence signal (fluorescence microscopy),[3]; listed as 17,higher fluorescence signal than human breast cancer cell line MCF-7; also recorded: highest cellular fluorescence
same,cellular fluorescence signal (fluorescence microscopy),[4],high amounts of cellular fluorescence
same,cellular fluorescence signal (fluorescence microscopy),[4]; listed as 9,specific visualization of the ETA receptor
same,cellular fluorescence signal (fluorescence microscopy),[4]; listed as 17,allowed for visualisation of the ETA receptor; also recorded: only moderate cellular fluorescence
same,cellular fluorescence signal (fluorescence microscopy),[4]; listed as targeted fluorochrome,strong fluorescence signal
"COc1ccc(C2(O)OC(=O)C(c3ccc4c(c3)OCO4)=C2Cc2cc(OC)c(OC)c(OC)c2)cc1 (stereo not drawn) [PD 156707, 3-benzo[1,3]dioxol-5-yl-5-hydroxy-5-(4-methoxyphenyl)-4-(3,4,5-trimethoxybenzyl)-5H-furan-2-one, reference compound]",myocardial signal of the fluorophore after pre-dosing,myocardial ETAR,significantly reduced
same,tumor fluorescence of ETAR-Cy 5.5 after predosing,[6]; predosing with unmodified ETAR antagonist,significant decrease of tumor fluorescence
same,blocking of the binding/signal of conjugate 17,"[3]; HT-1080 cells (FIG. 4B), antibody 1.3 μg or tenfold excess PD 156707",Blocking of the signal was possible
same,blocking of the binding/signal of the Cy 5.5 conjugate,[4]; PD 156707 50 nmol (tenfold) or ETAR antibodies 1.3 μg,could be blocked; also recorded: Blocking of the signal was possible
same,cell behaviour at higher concentrations,[4]; conjugate and unlabelled antagonist up to 100 nmol,cells detached from the bottom of the flask
same,IC50,endothelin receptors [7],0.3 nM

# Source: US8212058B2, “Fluorescent photoprobe for the imaging of endothelin receptors” (Universitatskilinikum Munster, priority 2005, dated 2012)
